One block for each compound: values may come before it.
How the values were obtained:
U87 cells = assay: 2-NBDG glucose analog uptake on chip; format: cell-based, human; settings: 20 min incubation in HBSS
Method: (§1) To monitor glucose uptake in U87 cells, a fluorescent deoxyglucose (2-[N-(7-nitrobenz-2-oxa-1,3-diaxol-4-yl)amino]-2-deoxyglucose; 2-NBDG)^72,73 was used and monitored the 2-NBDG uptake by U87 and U87-PTEN cells (FIG. 6). After cells were loaded into a chip, culture medium was washed with Hanks' balanced salt solution (HBSS) with CaCl2. Then, 2-NBDG in HBSS was loaded into a cell chamber and incubated for 20 min in an incubator.

U87-PTEN cells = assay: 2-NBDG glucose analog uptake on chip; format: cell-based, human; settings: 20 min incubation in HBSS
Method: as §1

[1] = test system: recurrent malignant gliomas; assay: Clinical trial of Avastin (in combination with CPT-11) in patients with recurrent malignant gliomas; format: in vivo, human
Excerpt: The obvious clinical efficacy of avastin will most certainly change the standard of care for malignant glioma patients. […] We will address the following questions: 1) does increased vascularity predispose towards clinical response to avastin (this will be done in collaboration with Dr. Luisa Iruela-Arispe, a noted expert in angiogenesis at UCLA); 2) are the downstream signaling pathways regulated by VEGF reactivated during response and by what mechanism. Are tumors which are driven by key pathways that promote VEGF expression (i.e. EGFR/PI3K signaling) more sensitive to avastin? In addition to testing lese specific hypotheses, we will apply global screening strategies. These include array CGH to detect chromosomal regions of interest associated with sensitivity and resistance (will be done at MSKCC by Dr. Mellinghoff) and integrated with global gene expression data (done both at UCLA and at MSKCC), in addition, through our NanoSystems Biology Cancer Center, we have begun collaboration with Dr. Lee Hood to use surface Plasmon resonance to facilitate the quantitative detection of thousands of proteins in a serum samples. This will enable us to identify protein signatures associated with sensitivity and acquired resistance.

mTOR = mTOR (Homo sapiens, UniProt P42345+P62942); settings: glioblastoma patients

Compound: O=[N+]([O-])c1ccc(N[C@H]2C(O)O[C@H](CO)[C@@H](O)[C@@H]2O)c2nonc12 (stereo partly drawn) [2-NBDG, 2-[N-(7-nitrobenz-2-oxa-1,3-diaxol-4-yl)amino]-2-deoxyglucose]
fluorescent signal of 2-NBDG uptake (U87 cells): signals of 2-NBDG were observed
fluorescent signal of 2-NBDG uptake (U87-PTEN cells): could not be detected

Compound: Avastin: VEGF inhibitor, given in combination with CPT-11
median time to tumor progression ([1]; Avastin with CPT-11, 95% CI=122-272, comparator median 56 days): 209 days
median overall survival ([1]; Avastin with CPT-11, 95% CI=251-424, comparator median 184 days): 340 days

extent of mTOR pathway inhibition (mTOR; in vivo, variable between patients): 10%-80%
Compound: CO[C@H]1C[C@@H]2CC[C@@H](C)[C@@](O)(O2)C(=O)C(=O)N2CCCC[C@H]2C(=O)O[C@H]([C@H](C)C[C@@H]2CC[C@@H](O)[C@H](OC)C2)CC(=O)[C@H](C)/C=C(\C)[C@@H](O)[C@@H](OC)C(=O)[C@H](C)C[C@H](C)/C=C/C=C/C=C/1C [rapamycin]
rapamycin level in tumor tissue in vivo (mTOR): present in potentially therapeutic levels

— patent publication US20100291584A1, “MICROFLUIDIC IMAGING CYTOMETRY” (The Regents of the University of California, priority 2008, published 2010)
